Read-outs that look alike come from different tables or passages of the source.
Legend:
hP2X2/3H = target: T1, hP2X2/3H (Homo sapiens, UniProt P56373+Q9UBL9); assay: Calcium uptake assay (P2X antagonist assay), P2X2/3 heteromer; format: cell-based; details: hP2X2/3H
T1 construct: expressed in transfected cells; host or cells: e.g. HEK293 or 1321N1
T1 sequence (Q9UBL9 1-471): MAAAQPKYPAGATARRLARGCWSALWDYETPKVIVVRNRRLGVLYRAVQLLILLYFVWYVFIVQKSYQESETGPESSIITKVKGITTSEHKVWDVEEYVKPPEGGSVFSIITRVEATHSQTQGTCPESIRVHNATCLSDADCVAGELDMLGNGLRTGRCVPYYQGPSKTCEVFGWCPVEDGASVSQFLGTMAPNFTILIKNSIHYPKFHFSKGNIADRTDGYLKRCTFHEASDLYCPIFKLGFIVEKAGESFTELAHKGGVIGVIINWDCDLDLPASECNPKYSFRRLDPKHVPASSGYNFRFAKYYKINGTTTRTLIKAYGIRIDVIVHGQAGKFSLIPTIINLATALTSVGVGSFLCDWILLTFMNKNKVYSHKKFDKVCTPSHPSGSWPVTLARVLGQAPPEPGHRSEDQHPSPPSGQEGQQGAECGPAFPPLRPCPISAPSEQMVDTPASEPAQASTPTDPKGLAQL
T1 sequence (P56373 1-397): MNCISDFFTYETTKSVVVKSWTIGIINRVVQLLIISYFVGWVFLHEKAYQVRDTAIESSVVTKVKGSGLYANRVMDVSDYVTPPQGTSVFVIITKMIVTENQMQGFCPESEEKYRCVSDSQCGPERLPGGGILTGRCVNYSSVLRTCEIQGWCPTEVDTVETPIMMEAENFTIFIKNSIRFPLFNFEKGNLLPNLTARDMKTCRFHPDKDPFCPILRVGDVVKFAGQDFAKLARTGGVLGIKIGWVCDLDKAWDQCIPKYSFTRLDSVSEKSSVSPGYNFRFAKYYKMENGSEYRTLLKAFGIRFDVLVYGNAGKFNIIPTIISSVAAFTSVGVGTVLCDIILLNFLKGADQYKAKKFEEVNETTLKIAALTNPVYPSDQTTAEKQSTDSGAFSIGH
Text: (§1) The human P2X2/3 chimera clone is created as described by Neelands et al, and then cloned into an expression vector as above. Receptors are expressed in cells (e.g., HEK293 or 1321N1 (obtained from the ECACC)) via transient transfection using standard lipid mediated transfection, or by creation of stable transfectants for each receptor. For expression of the P2X2/3 heteromeric receptor, the P2X3 expression vector is stably transfected into a cell line already stably expressing P2X2. P2X2/3 heteromer function is isolated using pharmacological methods. Cell lines are maintained in DMEM+5% Glutamax, the appropriate level of selective antibiotic, and 10% heat inactivated FBS.
(§2) Functional activity of compounds at the P2X receptor is determined by measuring their ability to inhibit agonist-induced calcium influx. Compounds are tested for antagonist activity against the P2X2/3 chimera, the P2X3 homomer, or the P2X2/3 heteromer. At the start of each screening day, the agonist EC50 is determined. Compound % inhibition or IC50s are subsequently determined using a predetermined agonist concentration (EC50-90 depending on cell line) as a stimulus. The agonists used are αβMeATP, ATP, or other ATP analogs. Compounds may be tested at concentrations ranging from 1 pM to 10 μM.
(§3) To test for antagonist activity, cells expressing the appropriate receptor are seeded onto 96 or 384 well plates 18-24 hours prior to assay. […] Plates are incubated at 37° C. and then equilibrated at room temperature. Antagonism of agonist-induced calcium influx is measured using a fluorescent imaging plate reader (e.g. FLIPR^TETRA, Molecular Devices, Sunnyvale, Calif.). The assay comprises two stages: a pre-treatment phase followed by a treatment phase. Compounds may be tested as follows: For the pre-treatment phase, 50 μL of 3× concentration of test compound in HBSS is added to cells containing […], of dye loading media to achieve a final concentration of 1× test compound. For the treatment phase, at a set interval after pre-treatment (1-30 minutes), 50 μL of 1× test compound plus 4× agonist solution is added, resulting in a final concentration of 1× compound and 1× agonist. […] Responses are measured as (peak fluorescence after agonist addition) minus (baseline fluorescence prior to treatment). Percent inhibition is calculated as follows:
(§4) [formula] IC50 values are determined by analyzing dose response data in a 4 parameter logistic fit using GraphPad Prizm.

hP2X3 = target: T2, hP2X3 (Homo sapiens, UniProt P56373); assay: Calcium uptake assay (P2X antagonist assay), P2X3 homomer; format: cell-based; details: hP2X3
T2 construct: expressed in transfected cells; host or cells: e.g. HEK293 or 1321N1
T2 sequence (P56373 1-397): T1 sequence (P56373 1-397)
Text: as §1, §2, §3, §4

[1] = calcium uptake assay, read-out: IC50 hP2X2/3H (nM), Ca Influx
[2] = calcium uptake assay, read-out: IC50 hP2X3 (nM), Ca Influx
[3] = Ca influx (calcium uptake assay), read-out: IC50 hP2X2/3H
[4] = Ca influx (calcium uptake assay), read-out: IC50 hP2X3

| Compound | IC50 (hP2X2/3H; [1]) [nM] | IC50 (hP2X3; [2]) [nM] | IC50 (hP2X2/3H; [3]) [nM] | IC50 (hP2X3; [4]) [nM] |
| --- | --- | --- | --- | --- |
| Cc1ccc(-c2cc(C(=O)NCc3ccc(Cl)nc3)cc(C(=O)N3CCCC3)c2)c(C#N)c1 [Compound 69] | < 100 | < 100 | – | – |
| Cc1ncc([C@@H](C)NC(=O)c2cc(C(=O)N3CCCC3)cc(-c3ccc(Br)cc3)c2)cn1 [Compound 216] | – | – | < 100 | < 100 |
| Cc1ccc(-c2cc(C(=O)N[C@H](C)c3cnc(C)nc3)cc(S(=O)(=O)CC(C)C)c2)cc1 [Compound 194] | < 100 | < 100 | – | – |
| Cc1ccc(-c2cc(C(=O)N[C@H](C)c3cnc(C)nc3)cc(C(=O)N3CCN4CCCC4C3)c2)cc1 (stereo partly drawn) [Compound 191, 4′-Methyl-N—((R)-1-(2-methylpyrimidin-5-yl)ethyl)-5-(octahydropyrrolo[1,2-a]pyrazine-2-carbonyl)biphenyl-3-carboxamide] | < 100 | < 100 | – | – |
| Cc1ccc(-c2cc(C(=O)NCc3ccc(C)nc3)cc(C(=O)N(C)[C@H]3CCNC3)c2)cc1 [Compound 172] | 100 to 500 | < 100 | – | – |
| Cc1ccc(-c2cc(C(=O)N[C@H](CO)c3ccc(C(F)(F)F)nc3)cc(S(C)(=O)=O)c2)cc1 [Compound 226] | – | – | 100 to 500 | < 100 |
| Cc1ccc(-c2cc(C(=O)N[C@@H](C)c3cnc(C)nc3)cc(C(=O)N3CCCC3)c2)cc1 [Compound 93] | 501 to 1000 | 100 to 500 | – | – |
| Cc1ccc(-c2cc(Oc3ccccn3)cc(C(=O)N[C@H](C)c3cnc(C)nc3)c2)c(C#N)c1 [Compound 258] | – | – | 100 to 500 | < 100 |
| Cc1ccc(-c2cc(C(=O)NCc3ccc(C)c(S(C)(=O)=O)c3)cc(S(C)(=O)=O)c2)cc1 [Compound 36] | < 100 | < 100 | – | – |
| COCCOc1cc(C(=O)NCc2ccc(C)nc2)cc(-c2ccc(C)cc2C#N)c1 [Compound 263] | – | – | 100 to 500 | < 100 |
| Cc1ncc(CNC(=O)c2cc(C(=O)N3CCCC3)cc(-c3ccc(F)cc3)c2)cn1 [Compound 38] | > 1000 | 100 to 500 | – | – |
| Cc1ncc(CNC(=O)c2cc(C(=O)N3CCCC3)cc(-c3ccc(F)cc3F)c2)cn1 [Compound 53] | > 1000 | 100 to 500 | – | – |
| Cc1ccc(-c2cc(C(=O)N[C@H](C)c3ccc(C)nc3)cc(C(=O)N3CCCC3)c2)nc1 [Compound 173] | < 100 | < 100 | – | – |
| Cc1ccc(-c2cc(Oc3nccs3)cc(C(=O)NCc3cnc(C)nc3)c2)cc1 [Compound 237] | – | – | 100 to 500 | < 100 |
| Cc1ccc(-c2cc(OCCO)cc(C(=O)NCc3ccc(C)nc3)c2)cc1 [Compound 301] | – | – | 100 to 500 | < 100 |
| Cc1ccc(-c2cc(C(=O)N[C@H](C)c3cnc(C)nc3)cc(C(=O)N3CCCC3)c2)nc1 [Compound 174] | < 100 | < 100 | – | – |
| Cc1ccc(-c2cc(Oc3nccs3)cc(C(=O)N[C@H](C)c3cnc(C)nc3)c2)cc1 [Compound 236, (R)-4′-Methyl-N-(1-(2-methylpyrimidin-5-yl)ethyl)-5-(thiazol-2-yloxy)biphenyl-3-carboxamide] | – | – | < 100 | < 100 |
| CCCS(=O)(=O)c1cc(C(=O)N[C@H](C)c2cnc(C)nc2)cc(-c2ccc(C)cc2)c1 [Compound 55] | < 100 | < 100 | – | – |
| Cc1ccc(-c2cc(C(=O)NCc3ccc(C)nc3)cc(C(=O)N(C)CC3CCNCC3)c2)cc1 [Compound 169] | 100 to 500 | 100 to 500 | – | – |

| Compound | IC50 (hP2X2/3H; [1]) [nM] | IC50 (hP2X3; [2]) [nM] | IC50 (hP2X2/3H; [3]) [nM] | IC50 (hP2X3; [4]) [nM] |
| --- | --- | --- | --- | --- |
| Cc1ccc(-c2cc(Oc3nc(Cl)cs3)cc(C(=O)N[C@H](C)c3ccc(C)nc3)c2)nc1 [Compound 384] | – | – | < 100 | < 100 |
| COCCOc1cc(C(=O)NCc2cnc(C)nc2)cc(-c2ccc(C)cc2C#N)c1 [Compound 262] | – | – | 100 to 500 | < 100 |
| CCCS(=O)(=O)c1cc(C(=O)NCc2ccc(C)nc2)cc(-c2ccc(C)cc2)c1 [Compound 56] | < 100 | < 100 | – | – |
| Cc1ccc(-c2cc(C(=O)NCc3ccc(C)nc3)cc(C(=O)N3CC4CN(C)CC4C3)c2)cc1 (stereo not shown) [Compound 141] | 100 to 500 | < 100 | – | – |
| Cc1ccc(-c2cc(C(=O)N[C@H](C)c3ccc(C)nc3)cc(S(C)(=O)=O)c2)cc1 [Compound 171] | < 100 | < 100 | – | – |
| Cc1ccc(-c2cc(C(=O)N[C@H](C)c3ccc(C)nc3)cc(C(O)C(F)(F)F)c2)c(C#N)c1 (stereo partly drawn) [Compound 295, 2′-Cyano-4′-methyl-N—((R)-1-(6-methylpyridin-3-yl)ethyl)-5-(2,2,2-trifluoro-1-hydroxyethyl)biphenyl-3-carboxamide] | – | – | < 100 | < 100 |
| Cc1ccc(-c2cc(C(=O)NCc3ccc(C)nc3)cc(S(=O)(=O)CC(C)C)c2)cc1 [Compound 183] | < 100 | < 100 | – | – |
| Cc1ccc(-c2cc(Oc3nccs3)cc(C(=O)NCc3cnc(C)nc3)c2)c(C#N)c1 [Compound 261] | – | – | 100 to 500 | < 100 |
| Cc1ccc(-c2cc(C(=O)N[C@H](C)c3cnc(C)nc3)cc(C(O)CO)c2)nc1 (stereo partly shown) [Compound 356] | – | – | 100 to 500 | < 100 |
| Cc1ccc(-c2cc(C(=O)NCc3ccc(C)nc3)cc(C(=O)N3CC[C@@H](N)C3)c2)cc1 [Compound 101] | 501 to 1000 | 100 to 500 | – | – |
| Cc1ccc(-c2cc(OCC3COCCO3)cc(C(=O)N[C@H](C)c3ccc(C)nc3)c2)nc1 (stereo partly shown) [Compound 332] | – | – | 100 to 500 | < 100 |
| Cc1ccc(-c2cc(C(=O)NCc3cnc(C)nc3)cc(C(=O)N3CC(O)C3)c2)cc1 [Compound 29, 5-(3-Hydroxyazetidine-1-carbonyl)-4′-methyl-N-((2-methylpyrimidin-5-yl)methyl)biphenyl-3-carboxamide] | < 100 | < 100 | – | – |
| Cc1ccc(-c2cc(OCC3CNCCO3)cc(C(=O)N[C@H](C)c3ccc(C)nc3)c2)cc1 (stereo partly shown) [Compound 325] | – | – | 100 to 500 | < 100 |
| Cc1ccc(-c2cc(C(=O)NCc3cnc(C)nc3)cc(C(=O)N3CCCC3)c2)cc1 [Compound 20, 4′-Methyl-N-((2-methylpyrimidin-5-yl)methyl)-5-(pyrrolidine-1-carbonyl)biphenyl-3-carboxamide] | < 100 | < 100 | – | – |
| Cc1ccc(-c2cc(C(=O)NCc3cnc(C)nc3)cc(C(=O)N3CC3C)c2)cc1 (stereo not shown) [Compound 31, 4′-Methyl-5-(2-methylaziridine-1-carbonyl)-N-((2-methylpyrimidin-5-yl)methyl)biphenyl-3-carboxamide] | 501 to 1000 | < 100 | – | – |
| Cc1ccc(-c2cc(C(=O)NC(C)c3csc(C)n3)cc(C(=O)N3CCCC3)c2)nc1 (stereo not shown) [Compound 175] | 100 to 500 | < 100 | – | – |
| COc1ncc([C@@H](C)NC(=O)c2cc(C(=O)N3CC(O)C3)cc(-c3ccc(C)cc3)c2)cn1 [Compound 84] | 100 to 500 | < 100 | – | – |
| Cc1ccc(-c2cc(C(=O)NCc3ccc(Cl)c(-n4cnnc4)c3)cc(C(=O)N3CCCC3)c2)cc1 [Compound 102] | < 100 | < 100 | – | – |
| Cc1ccc(-c2cc(Oc3ncccn3)cc(C(=O)NCc3cnc(C)nc3)c2)cc1 [Compound 234] | – | – | 501 to 1000 | 100 to 500 |
